In patent US10023579B2, “Pyrrolopyrimidine compounds, use as inhibitors of the kinase LRRK2, and methods for preparation thereof” (Southern Research Institute, priority 2015, dated 2018):
Several values for one entry are separate records, joined by “and”; a condition that tells them apart may be missing. Equal values may be shown once.

Assays:
[1] = target: T1, G2019S-LRRK2 (recombinant GST-LRRK2 delta970) (Homo sapiens, UniProt Q5S007, G2019S); experiment: LRRK2 kinase assay, G2019S mutant (32P radiometric, peptide substrate); assay type: biochemical; conditions: G2019S-LRRK2 30 nM, ATP ~52 μM (Km), 30 min at 30° C.
T1 construct: Recombinant GST-LRRK2 (delta970); GST (N); host or cells: baculovirus-infected Sf9 insect cells
T1 sequence (Q5S007 970-2527 G2019S limits assumed): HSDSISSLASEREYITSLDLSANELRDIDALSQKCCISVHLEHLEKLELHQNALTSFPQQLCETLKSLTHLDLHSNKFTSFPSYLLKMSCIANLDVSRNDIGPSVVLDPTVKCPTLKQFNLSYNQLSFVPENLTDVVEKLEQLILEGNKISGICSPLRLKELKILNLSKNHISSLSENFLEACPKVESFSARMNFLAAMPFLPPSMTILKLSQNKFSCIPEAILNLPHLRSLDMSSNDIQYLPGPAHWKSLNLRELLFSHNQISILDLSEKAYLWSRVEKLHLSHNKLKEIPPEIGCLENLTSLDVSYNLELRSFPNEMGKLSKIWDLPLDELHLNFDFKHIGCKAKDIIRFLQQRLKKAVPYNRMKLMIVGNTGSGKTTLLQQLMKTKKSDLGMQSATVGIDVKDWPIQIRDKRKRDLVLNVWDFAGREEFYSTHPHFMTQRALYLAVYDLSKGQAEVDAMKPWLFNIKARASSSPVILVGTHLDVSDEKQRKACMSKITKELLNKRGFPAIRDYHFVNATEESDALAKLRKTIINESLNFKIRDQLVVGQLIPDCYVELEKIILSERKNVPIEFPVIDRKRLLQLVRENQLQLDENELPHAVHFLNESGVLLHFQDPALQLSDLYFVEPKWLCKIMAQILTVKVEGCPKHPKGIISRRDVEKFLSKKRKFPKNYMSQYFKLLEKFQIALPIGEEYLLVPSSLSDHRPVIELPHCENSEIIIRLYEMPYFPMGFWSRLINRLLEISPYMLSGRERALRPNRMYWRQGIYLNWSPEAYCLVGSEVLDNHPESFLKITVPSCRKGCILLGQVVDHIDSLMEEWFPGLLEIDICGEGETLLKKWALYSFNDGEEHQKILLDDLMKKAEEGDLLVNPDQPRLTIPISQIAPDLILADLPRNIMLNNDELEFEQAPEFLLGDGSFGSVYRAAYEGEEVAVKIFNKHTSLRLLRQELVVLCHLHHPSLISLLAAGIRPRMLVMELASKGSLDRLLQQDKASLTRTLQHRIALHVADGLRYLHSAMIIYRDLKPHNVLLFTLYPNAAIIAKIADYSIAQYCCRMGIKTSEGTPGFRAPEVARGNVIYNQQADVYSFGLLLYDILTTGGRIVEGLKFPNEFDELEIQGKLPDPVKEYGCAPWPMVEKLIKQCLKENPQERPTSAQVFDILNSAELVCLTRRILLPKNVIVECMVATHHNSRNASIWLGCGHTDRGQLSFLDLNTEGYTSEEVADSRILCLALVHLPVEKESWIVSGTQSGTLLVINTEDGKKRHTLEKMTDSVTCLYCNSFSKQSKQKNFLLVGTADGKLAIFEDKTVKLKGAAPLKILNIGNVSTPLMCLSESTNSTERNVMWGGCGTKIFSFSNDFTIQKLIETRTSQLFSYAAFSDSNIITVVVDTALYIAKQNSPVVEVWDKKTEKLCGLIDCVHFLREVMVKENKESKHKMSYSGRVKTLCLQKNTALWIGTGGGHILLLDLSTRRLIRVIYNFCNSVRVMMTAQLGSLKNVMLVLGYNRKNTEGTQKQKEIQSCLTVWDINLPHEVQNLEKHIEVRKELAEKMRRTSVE
Method: (§1) Compounds were assessed for inhibition of LRRK2 inhibition using the following procedure. Recombinant GST-LRRK2 (delta970) purified from baculovirus infected insect cells (SF9), at least 90% pure and either wild-type sequence or bearing the pathogenic G2019S mutation, was combined into a kinase buffer at 30 nM concentration. Kinase buffer consists of 50 mM Tris HCl pH 7.4, 1 mM EDTA, and 50 μM peptide substrate (amino acid sequence […]). Experimental compounds or control (no compound) were added at desired concentrations in DMSO and water, where final concentration of DMSO in kinase reactions was 0.1% for all drug concentrations. […] Reactions were incubated at 1400 RPM at 30° C. for 30 min. and then spotted in triplicate directly onto a slot-blot apparatus fitted with phospho-cellulose paper and allowed to dry. Each slot was then washed with 10 mM phosphoric acid buffer until beta-radiation could not be detected in eluted wash buffer, usually ˜1 mL per slot. Paper within each slot were excised and radiation measured by liquid scintillation.

[2] = target: T2, WT-LRRK2 (recombinant GST-LRRK2 delta970) (Homo sapiens, UniProt Q5S007); experiment: LRRK2 kinase assay, wild type (32P radiometric, peptide substrate); assay type: biochemical; conditions: WT-LRRK2 30 nM, ATP ~92 μM (Km), 30 min at 30° C.
T2 construct: Recombinant GST-LRRK2 (delta970); GST (N); host or cells: baculovirus-infected Sf9 insect cells
T2 sequence (Q5S007 970-2527 limits assumed): as the sequence (Q5S007 970-2527 G2019S limits assumed) above, with S1050G counted along it
Method: as §1

| SMILES | IC50 [1] | IC50 [2] |
| --- | --- | --- |
| CCn1cc(Nc2nc(N[C@@H](C)C3CC3)c3cc[nH]c3n2)cn1 [Compound 29] | 0.017 µM | 0.012 µM |
| Cc1cc(Nc2nc(N[C@@H](C)C3CC3)c3cc[nH]c3n2)n[nH]1 [Compound 36, (S)-N4-(1-cyclopropylethyl)-N2-(5-methyl-1H-pyrazol-3-yl)-7H-pyrrolo[2,3-d]pyrimidine-2,4-diamine] | 0.044 µM | 0.038 µM |
| Cc1cc(Nc2nc(N[C@@H](C)C3CC3)c3nc[nH]c3n2)nn1C(C)C [Compound 60, (S)-N6-(1-cyclopropylethyl)-N2-(1-isopropyl-5-methyl-1H-pyrazol-3-yl)-9H-purine-2,6-diamine] | 0.065 µM | 0.032 µM |
| Cc1c(Nc2nc(N[C@@H](C)C3CCCCC3)c3cc[nH]c3n2)cnn1C(C)C [Compound 25, (S)-N4-(1-cyclohexylethyl)-N2-(1-isopropyl-5-methyl-1H-pyrazol-4-yl)-7H-pyrrolo[2,3-d]pyrimidine-2,4-diamine] | 0.043 µM | 0.042 µM |
| C[C@H](Nc1nc(Nc2cnn(C)c2)nc2[nH]cnc12)C1CC1 [Compound 9, (S)-N6-(1-cyclopropylethyl)-N2-(1-methyl-1H-pyrazol-4-yl)-9H-purine-2,6-diamine] | 0.1 µM | 0.038 µM |
| CC(O)Cn1cc(Nc2nc(N[C@@H](C)C3CC3)c3cc[nH]c3n2)nn1 (stereo partly drawn) [Compound 54, 1-(4-((4-(((S)-1-cyclopropylethyl)amino)-7H-pyrrolo[2,3-d]pyrimidin-2-yl)amino)-1H-1,2,3-triazol-1-yl)propan-2-ol] | 0.027 µM | 0.021 µM |
| CC(C)n1cc(Nc2nc(N[C@@H](C)c3ccccn3)c3cc[nH]c3n2)cn1 [Compound 35, (S)-N2-(1-isopropyl-1H-pyrazol-4-yl)-N4-(1-(pyridin-2-yl)ethyl)-7H-pyrrolo[2,3-d]pyrimidine-2,4-diamine] | 0.097 µM | 0.066 µM |
| CC(C)n1cc(Nc2nc(N[C@@H](C)C3CC3)c3nc[nH]c3n2)cn1 [Compound 12, (S)-N6-(1-cyclopropylethyl)-N2-(1-isopropyl-1H-pyrazol-4-yl)-9H-purine-2,6-diamine] | 0.022 µM | 0.01 µM |
| CC(C)n1cc(Nc2nc(NC3CCC3)c3cc[nH]c3n2)cn1 [Compound 8, N4-cyclobutyl-N2-(1-isopropyl-1H-pyrazol-4-yl)-7H-pyrrolo[2,3-d]pyrimidine-2,4-diamine] | 0.009 µM | 0.005 µM |
| COCC(C)n1cc(Nc2nc(N(C)[C@@H](C)C3CC3)c3cc[nH]c3n2)cn1 (stereo partly drawn) [Compound 49, N4-((S)-1-cyclopropylethyl)-N2-(1-(1-methoxypropan-2-yl)-1H-pyrazol-4-yl)-N4-methyl-7H-pyrrolo[2,3-d]pyrimidine-2,4-diamine] | 0.069 µM | 0.027 µM |
| C[C@H](Nc1nc(Nc2cnn(C3CCN(C)CC3)c2)nc2[nH]ccc12)C1CC1 [Compound 31, (S)-N4-(1-cyclopropylethyl)-N2-(1-(1-methylpiperidin-4-yl)-1H-pyrazol-4-yl)-7H-pyrrolo[2,3-d]pyrimidine-2,4-diamine] | 0.023 µM | 0.02 µM |
| COCCn1cc(Nc2nc(N[C@@H](C)C3CC3)c3cc[nH]c3n2)cn1 [Compound 32, (S)-N4-(1-cyclopropylethyl)-N2-(1-(2-methoxyethyl)-1H-pyrazol-4-yl)-7H-pyrrolo[2,3-d]pyrimidine-2,4-diamine] | 0.011 µM | 0.011 µM |
| CC(C)n1cc(Nc2nc(N(C)[C@@H](C)C3CC3)c3cc[nH]c3n2)cn1 [Compound 48, (S)-N4-(1-cyclopropylethyl)-N2-(1-isopropyl-1H-pyrazol-4-yl)-N4-methyl-7H-pyrrolo[2,3-d]pyrimidine-2,4-diamine] | 0.044 µM | 0.019 µM |
| CC(C)n1cc(Nc2nc(N[C@@H](C)c3ccccc3)c3cc[nH]c3n2)cn1 [Compound 22, (S)-N2-(1-isopropyl-1H-pyrazol-4-yl)-N4-(1-phenylethyl)-7H-pyrrolo[2,3-d]pyrimidine-2,4-diamine] | 0.056 µM | 0.037 µM |
| C[C@H](Nc1nc(Nc2cn([C@H]3CCOC3)nn2)nc2[nH]ccc12)C1CC1 [Compound 51, N4-((S)-1-cyclopropylethyl)-N2-(1-((S)-tetrahydrofuran-3-yl)-1H-1,2,3-triazol-4-yl)-7H-pyrrolo[2,3-d]pyrimidine-2,4-diamine] | 0.102 µM | 0.066 µM |
| C[C@H](Nc1nc(Nc2cn(C3COC3)nn2)nc2[nH]ccc12)C1CC1 [Compound 56, (S)-N4-(1-cyclopropylethyl)-N2-(1-(oxetan-3-yl)-1H-1,2,3-triazol-4-yl)-7H-pyrrolo[2,3-d]pyrimidine-2,4-diamine] | 0.115 µM | 0.073 µM |

| SMILES | IC50 [1] | IC50 [2] |
| --- | --- | --- |
| COCCn1cc(Nc2nc(N[C@@H](C)C3CC3)c3cc[nH]c3n2)nn1 [Compound 39, (S)-N4-(1-cyclopropylethyl)-N2-(1-(2-methoxyethyl)-1H-1,2,3-triazol-4-yl)-7H-pyrrolo[2,3-d]pyrimidine-2,4-diamine] | 0.058 µM and 0.113 µM and 0.088 µM | – |
| C[C@H](Nc1nc(Nc2cn([C@@H](C)CO)nn2)nc2[nH]ccc12)C1CC1 [Compound 58, (S)-2-(4-((4-(((S)-1-cyclopropylethyl)amino)-7H-pyrrolo[2,3-d]pyrimidin-2-yl)amino)-1H-1,2,3-triazol-1-yl)propan-1-ol] | 0.101 µM | 0.072 µM |
| CC(C)n1cc(Nc2nc(N[C@@H](C)C3CCC3)c3cc[nH]c3n2)cn1 [Compound 42, (S)-N4-(1-cyclobutylethyl)-N2-(1-isopropyl-1H-pyrazol-4-yl)-7H-pyrrolo[2,3-d]pyrimidine-2,4-diamine] | 0.078 µM | 0.067 µM |
| COCC(C)n1cc(Nc2nc(N[C@@H](C)C3CC3)c3cc[nH]c3n2)cn1 (stereo partly drawn) [Compound 34, N4-((S)-1-cyclopropylethyl)-N2-(1-(1-methoxypropan-2-yl)-1H-pyrazol-4-yl)-7H-pyrrolo[2,3-d]pyrimidine-2,4-diamine] | 0.015 µM | 0.011 µM |
| C[C@H](Nc1nc(Nc2cnn(C)c2)nc2[nH]ccc12)C1CC1 [Compound 28, (S)-N4-(1-cyclopropylethyl)-N2-(1-methyl-1H-pyrazol-4-yl)-7H-pyrrolo[2,3-d]pyrimidine-2,4-diamine] | 0.03 µM | 0.02 µM |
| Cc1c(Nc2nc(N[C@H]3CCc4ccccc43)c3cc[nH]c3n2)cnn1C(C)C(=O)N1CCN(C)CC1 (stereo partly drawn) [Compound 18, 2-(4-((4-(((S)-2,3-dihydro-1H-inden-1-yl)amino)-7H-pyrrolo[2,3-d]pyrimidin-2-yl)amino)-5-methyl-1H-pyrazol-1-yl)-1-(4-methylpiperazin-1-yl)propan-1-one] | 0.049 µM | 0.037 µM |
| Cc1c(Nc2nc(N[C@@H](C)c3ccccc3)c3cc[nH]c3n2)cnn1C(C)C [Compound 24, (S)-N2-(1-isopropyl-5-methyl-1H-pyrazol-phenylethyl)-7H-pyrrolo[2,3-d]pyrimidine-2,4-diamine] | 0.063 µM | 0.055 µM |
| Cn1cc(Nc2nc(NC3CCC3)c3cc[nH]c3n2)cn1 [Compound 7, N4-cyclobutyl-N2-(1-methyl-1H-pyrazol-4-yl)-7H-pyrrolo[2,3-d]pyrimidine-2,4-diamine] | 0.019 µM | 0.008 µM |
| C[C@H](Nc1nc(Nc2cnn(CCN(C)C)c2)nc2[nH]ccc12)C1CC1 [Compound 41, (S)-N4-(1-cyclopropylethyl)-N2-(1-(2-(dimethylamino)ethyl)-1H-pyrazol-4-yl)-7H-pyrrolo[2,3-d]pyrimidine-2,4-diamine] | 0.065 µM | 0.05 µM |
| CC(C)n1cc(Nc2nc(NC3CCC3)c3nc[nH]c3n2)cn1 [Compound 13, N6-cyclobutyl-N2-(1-isopropyl-1H-pyrazol-4-yl)-9H-purine-2,6-diamine] | 0.015 µM | 0.007 µM |
| C[C@H](Nc1nc(Nc2cn(C3CCOC3)nn2)nc2[nH]ccc12)C1CC1 (stereo in doubt) [Compound 50, N4-((S)-1-cyclopropylethyl)-N2-(1-((S)-tetrahydrofuran-3-yl)-1H-1,2,3-triazol-4-yl)-7H-pyrrolo[2,3-d]pyrimidine-2,4-diamine] | 0.061 µM | 0.04 µM |
| Cc1cc(Nc2nc(N[C@@H](C)C3CC3)c3nc[nH]c3n2)n[nH]1 [Compound 10, (S)-N6-(1-cyclopropylethyl)-N2-(5-methyl-1H-pyrazol-3-yl)-9H-purine-2,6-diamine] | 0.048 µM | 0.019 µM |
| C[C@H](Nc1nc(Nc2cn([C@H](C)CO)nn2)nc2[nH]ccc12)C1CC1 [Compound 55, (R)-2-(4-((4-(((S)-1-cyclopropylethyl)amino)-7H-pyrrolo[2,3-d]pyrimidin-2-yl)amino)-1H-1,2,3-triazol-1-yl)propan-1-ol] | 0.013 µM and 0.032 µM | 0.009 µM and 0.019 µM |
| COCc1cc(Nc2nc(N[C@@H](C)C3CC3)c3cc[nH]c3n2)n[nH]1 [Compound 61, (S)-N4-(1-cyclopropylethyl)-N2-(5-(methoxymethyl)-1H-pyrazol-3-yl)-7H-pyrrolo[2,3-d]pyrimidine-2,4-diamine] | 0.099 µM | 0.064 µM |
| CC(C)n1ccc(Nc2nc(N[C@@H](C)C3CC3)c3nc[nH]c3n2)n1 [Compound 59, (S)-N6-(1-cyclopropylethyl)-N2-(1-isopropyl-1H-pyrazol-3-yl)-9H-purine-2,6-diamine] | 0.115 µM | 0.051 µM |
